Data taken from patent US20230391729A1, “SUCCINATE SALTS OF N-(3-(4-(3-(DIISOBUTYLAMINO)PROPYL)PIPERAZIN-1-YL)PROPYL)-1H-BENZO[D]IMIDAZOL-2-AMINE, PREPARATION THEREOF AND USE OF THE SAME” (ALZPROTECT, priority 2020, published 2023).

Key:
Type in all cases: physicochemical
[1] = Polymorphic form stability of di-sulphate salt upon drying at 50° C.
[2] = Storage stability of free base, di-sulphate salt and its aqueous solutions (background); conditions: for stability of aqueous solution: glass vials, no preservative
[3] = Water solubility of di-sulphate salt (background)
[4] = 7-day stability tests of the salt (XRPD, HPLC purity); conditions: 50° C., 80° C. and ambient light
Protocol: 7-day stability tests were carried out as follows: 15 mg of salt was weighed into x3 2 mL vials. The vials were then placed at 40° C./75% RH, 80° C. and under ambient light; after 1 week, the solids were analysed by XRPD and HPLC purity (method A).

[5] = Solubility assessment in unbuffered water and pH buffers; conditions: thermodynamic from solid
Protocol: 100 μL of the appropriate buffer was added to form a slurry.

[6] = Dynamic vapour sorption (DVS)
Protocol: Approximately 10-20 mg of sample was placed into a mesh vapour sorption balance pan and loaded into an Intrinsic dynamic vapour sorption balance by Surface Measurement Systems. The sample was subjected to a ramping profile from 40-90% relative humidity (RH) at 10% increments, maintaining the sample at each step until a stable weight had been achieved (dm/dt 0.004%, minimum step length 30 minutes, maximum step length 500 minutes) at 25° C. After completion of the sorption cycle, the sample was dried using the same procedure to 0% RH and then a second sorption cycle back to 40% RH. Two cycles were performed. The weight change during the sorption/desorption cycles were plotted, allowing for the hygroscopic nature of the sample to be determined. XRPD analysis was then carried out on any solid retained.

Question: With `CC(C)CN(CCCN1CCN(CCCNc2nc3ccccc3[nH]2)CC1)CC(C)C.O=S(=O)(O)O.O=S(=O)(O)O` [Form A, N-(3-(4-(3-(diisobutylamino)propyl)piperazin-1-yl)propyl)-1H-benzo[d]imidazol-2-amine di-sulphate salt] as the molecule, how does the “crystalline form stability upon drying” value ([1]; di-sulphate salt) read?
Answer: converts back to polymorphic Form B

Question: For `CC(C)CN(CCCN1CCN(CCCNc2nc3ccccc3[nH]2)CC1)CC(C)C.O=S(=O)(O)O.O=S(=O)(O)O` [Form B, N-(3-(4-(3-(diisobutylamino)propyl)piperazin-1-yl)propyl)-1H-benzo[d]imidazol-2-amine di-sulphate], which “crystalline form stability upon drying” value ([1]; di-sulphate) is on record?
Answer: partially loses its crystallinity

Question: Which “stability of aqueous solution” value ([2]; 5° C.) does the source give for `CC(C)CN(CCCN1CCN(CCCNc2nc3ccccc3[nH]2)CC1)CC(C)C.O=S(=O)(O)O.O=S(=O)(O)O` [di-sulphate salt, N-(3-(4-(3-(diisobutylamino)propyl)piperazin-1-yl)propyl)-1H-benzo[d]imidazol-2-amine di-sulphate] here?
Answer: up to 18 months

Question: What about the “stability to regular storage conditions” value ([2]; 15-25° C.) of the same molecule?
Answer: at least 5 years

Question: And the “stability of aqueous solution” value ([2]; 25° C./60% RH)?
Answer: up to 18 months

Question: What about the “stability of aqueous solution” value ([2]; 40° C./75% RH) of the same molecule?
Answer: up to 6 months

Question: What about the solubility [3] of the same molecule?
Answer: > 100 mg/mL

Question: For `CC(C)CN(CCCN1CCN(CCCNc2nc3ccccc3[nH]2)CC1)CC(C)C` [free base, N-(3-(4-(3-(diisobutylamino)propyl)piperazin-1-yl)propyl)-1H-benzo[d]imidazol-2-amine], which long term stability [2] is on record?
Answer: long term stability issues due to oxidative degradation

Question: What does the source list for `CC(C)CN(CCCN1CCN(CCCNc2nc3ccccc3[nH]2)CC1)CC(C)C.O=C(O)CCC(=O)O.O=C(O)CCC(=O)O.O=C(O)CCC(=O)O` [tris-succinate salt Form 2, N-(3-(4-(3-(diisobutylamino)propyl)piperazin-1-yl)propyl)-1H-benzo[d]imidazol-2-amine tris-succinate salt]?
Answer: 7-day stability [4]: stable; solubility ([5]; pH 1.2, simulated gastric fluid): > 123 mg/mL; solubility ([5]; pH 4.5, aqueous buffer): > 92.4 mg/mL; solubility ([5]; pH 6.8, aqueous buffer): > 95.7 mg/mL; Post-DVS XRPD crystalline form ([6]; after DVS cycle): remain as tris-succinate salt Form 2; DVS weight uptake ([6]; at 70% RH, 25° C.): ca. +0.1 wt. %; DVS water uptake in equivalents ([6]; up to 90% RH): approximately 4.3 equiv. water; DVS weight increase ([6]; up to 90% RH, 25° C.): ca. +9.92 wt. %; hygroscopicity ([6]; up to 90% relative humidity): not hygroscopic
